In paper PMC8900595 (Journal of medicinal chemistry, 2021):

What was measured:
[1] = system: A549 cells; conditions: human
[2] = system: A/WSN/33; experiment: microbe, parasite or virus in culture; format: cell-based, influenza A virus
[3] = system: H3N2 (A/Wyoming/03/2003); format: cell-based, influenza A virus
[4] = system: H1N1 (A/California/07/2009); format: cell-based, influenza A virus
[5] = system: influenza virus; format: cell-based
[6] = system: poly(A) RNA and GAPDH mRNA; experiment: RNA-FISH and smRNA-FISH of cellular RNA in uninfected cells; format: cell-based, human; conditions: 1 μM
[7] = system: WSN-PB2-Nanoluc virus; experiment: microbe, parasite or virus in culture; format: cell-based; conditions: Influenza A virus, HCT-116, read-out: IC50, Nanoluc levels
[8] = system: HA-mediated membrane fusion; format: cell-based, influenza A virus; conditions: pH 5
[9] = system: A/WSN/33; format: cell-based, influenza A virus
[10] = system: A/WSN/33; format: cell-based, influenza A virus; remark: listed apart in the source
[11] = system: H3N2 A/Panama/1999; format: cell-based, influenza A virus
[12] = system: H1N1 A/WSN/1933 virus; format: cell-based, influenza A virus
[13] = system: H5N1 A/Vietnam/1203/2004 HaLo virus; format: cell-based, influenza A virus; conditions: 25 μM, MOI = 0.01, 24 h, A549 cells
[14] = system: WSN-PB2-Nanoluc virus; format: cell-based, influenza A virus

Structure (SMILES) | Cytotoxicity (MTT) CC10 [1] [µM] | antiviral activity as described in SAR text [2] | selectivity index [2] | number of infected cells [3] | number of infected cells [4] | activity under the assay conditions [14] | other results
CCN(c1ccc(F)cc1F)S(=O)(=O)c1cc(Cl)ccc1Cl [compound 21, 2,5-Dichloro-N-(2,4-difluorophenyl)-N-ethylbenzenesulfonamide] | >5 | equipotent to compound 1 | >96 | slightly inhibited the number of infected cells | robustly reduced the number of cells infected | – | –
CCN(c1ccccc1C)S(=O)(=O)c1cc(Cl)ccc1Cl [compound 1, 2,5-dichloro-N-ethyl-N-(o-tolyl)-benzenesulfonamide] | >25 | – | >625 | slightly inhibited the number of infected cells | robustly reduced the number of cells infected | – | viral mRNA levels in primary cells [5]: robustly decreased viral mRNA levels; effect on cellular bulk poly(A) RNA or GAPDH [6]: did not have a significant effect; IC50 [7]: 0.0168 µM; inhibition of fusion (hemolysis) [8]: robust inhibition of fusion; antiviral activity when used shortly post-infection (western blot NP, M1) [9]: lack of antiviral activity; viral protein levels (western blot) [9]: reduced levels of influenza virus proteins; viral M mRNA expression, compound added after infection [10]: robustly expressed; viral M mRNA expression, compound added prior to infection [10]: expressed at very low levels; viral mRNA levels (HA, NS1, M1, M2) by qPCR [10]: reduced levels of viral mRNAs; viral mRNA levels (M, HA, NS) by smRNA-FISH [10]: reduced influenza virus (A/WSN/33) mRNA levels; reduction of viral titers [11]: four; reduction of viral titers [12]: four; reduction of viral titers [13]: four
CCN(c1ccc(Cl)cc1C)S(=O)(=O)c1cc(Cl)ccc1Cl [compound 12, 2,5-Dichloro-N-(4-chloro-2-methylphenyl)-N-ethylbenzenesulfonamide] | >5 | generally more potent | >147 | more effectively decreased infection | robustly reduced the number of cells infected | – | –
C#CCCC1(CCN(c2ccc(Cl)cc2C)S(=O)(=O)c2cc(Cl)ccc2Cl)N=N1 [compound 52, N-(2-(3-(But-3-yn-1-yl)-3H-diazirin-3-yl)ethyl)-2,5-dichloro-N-(4-chloro-2-methylphenyl)benzenesulfonamide] | – | – | – | – | – | not active | –
O=S(=O)(c1cc(Cl)ccc1Cl)N1CCCc2cc(Cl)ccc21 [compound 50, 6-Chloro-1-((2,5-dichlorophenyl)sulfonyl)-1,2,3,4-tetrahydroquinoline] | – | – | – | – | – | inactive | –
